Measurements taken from US11806361B2, “Treatments of non-alcoholic steatohepatitis (NASH)” (DEUTSCHES KREBSFORSCHUNGSZENTRUM STIFTUNG DES ÖFFENTLICHEN …, priority 2016, dated 2023).

Columns and labels:
CD-HFD fed C57BL/6 mice = experiment: CD-HFD mouse model of NASH and NASH-triggered HCC; type: in vivo; settings: for development of NASH: MRI analysis and histological analysis; for Histopathological signs of NASH (e.g. ballooned hepatocytes): H/E stains of liver; for Aberrant hepatic lipid metabolism and b-Oxidation: Real time PCR analysis for gene expression in the liver
Text: Indeed that approach enabled the inventors to study a chronic model of NASH in the context of metabolic syndrome, triggering subsequent HCC in C57BL/6 mice, in the absence of chemical carcinogens or genetic mutations predisposing to NASH or HCC development. CD-HFD fed mice display several long term pathologies observed in human patients: abdominal obesity, overweight, insulin resistance, liver damage, production of reactive oxygen species (ROS) fibrosis, hepatic mitochondrial damage, dyslipidemia and NASH. Moreover, HCC developed 12 months post CD-HFD start and resembled histologically, genetically and morphologically human HCC (FIG. 1). Cholesterol Diet—High Fat Diet (CD-HFD) in mice recapitulates human NASH and NASH triggered HCC pathology. (FIG. 1A) Weight development in male normal diet fed (ND) and CD-HFD fed C57BL/6 mice. (FIG. 1B) Intraperitoneal Glucose tolerance test performed with 6-month-old male ND and CD-HFD C57BL/6 mice. (FIG. 1C) Quantification of serum aminotransferase (ALT) levels in male C57BL/6 mice reflecting liver damage. (FIG. 1D) MRI analyses on livers of 6-month-old ND and CD-HFD C57BL/6 mice. T1 (fast low-angle shot [FLASH]) OUT phase: dark color indicative of steatosis. T2 TurboRare visualizes increase in subcutaneous and abdominal fat and hepatic lipid accumulation (bright regions) in CD-HFD mice. (FIG. 1E) Macroscopy and histopathology of livers from 12-month-old ND, HFD, or CD-HFD C57BL/6 mice, with arrowhead pointing towards HCC. Scale bar: 5 mm. T: Tumor. NT: Non-Tumor. ***P=0.001. (F) Representative H&E staining of 12-month-old CD-HFD C57BL/6 livers and human livers illustrating NASH. Accumulation of Mallory Denk bodies (red arrowhead), ballooned hepatocytes (brown arrowhead), and satellitosis (blue arrowhead) is similar to human NASH pathology (right image). Scale bar: 50 μm.
(§1) Aspirin/Clopidrogrel (Asp/Clop), a thrombocyte aggregation inhibitor, treatment reduces the capacity of platelets aggregate and prevents NASH and aberrant hepatic lipid metabolism (FIG. 5). (FIG. 5A) Asprin/Clopidrogrel treatment reduces the number of platelets in the liver (White bars: ND; Black bars: CD-HFD; Green bars: CD-HFD treated with Asp/Clop). […] (FIG. 5E) Liver to body weight ratio is rescued upon Asp/Clop treatment at 12 months of age. (FIG. 5F) Liver damage as measured by ALT levels in serum is prevented in Asp/Clop treated mice. (FIG. 5G) Triglycerides are reduced in serum of Asp/Clop treated mice at 12 months of age. (FIG. 5H) Serum cholesterol is reduced in Asp/Clop treated mice at 6 and 12 months, (FIG. 5I) Aberrant hepatic lipid metabolism and b-Oxidation is rescued in Asp/Clop treated mice—as analyzed by Real time PCR analysis for gene expression in the liver. Stars indicate significance. […] (FIG. 5J) Lipid deposition in the liver indicated by a dark staining in the T1 (FLASH) OUT phase is not detected—as in the CD-HFD. Still at the same time abdominal and subcutaneous fat are visible in Asp/Clop treated mice. (FIG. 5K) Histopathological signs of NASH (e.g. ballooned hepatocytes—see also stars) are absent in Asp/Clop treated mice.

platelets = experiment: ex vivo activation / aggregation assay on platelets taken from peripheral blood; type: cell-based; settings: platelets taken from peripheral blood of treated CD-HFD mice
Text: By using different dilution curves of CRP or Thr a reproducible and consistent analysis of the platelet-response rate was visible.
as §1

Row | SMILES | Liver damage as measured by ALT levels in serum (CD-HFD fed C57BL/6 mice; CD-HFD fed mice) | development of obesity (CD-HFD fed C57BL/6 mice; CD-HFD fed mice) | number of HCC (HCC incidence) (CD-HFD fed C57BL/6 mice; CD-HFD fed mice) | development of NASH (CD-HFD fed C57BL/6 mice; CD-HFD fed mice) | Histopathological signs of NASH (e.g. ballooned hepatocytes) (CD-HFD fed C57BL/6 mice) | Aberrant hepatic lipid metabolism and b-Oxidation (CD-HFD fed C57BL/6 mice) | Serum cholesterol (CD-HFD fed C57BL/6 mice; at 6 and 12 months) | Triglycerides in serum (CD-HFD fed C57BL/6 mice; at 12 months of age) | Activation status of platelets (ex vivo assay) (platelets) | Aggregation capacity status of platelets (ex vivo aggregation assay) (platelets) | insulin resistance (intraperitoneal glucose tolerance test) (CD-HFD fed C57BL/6 mice; CD-HFD fed mice) | Lipid deposition in the liver (dark staining in the T1 (FLASH) OUT phase) (CD-HFD fed C57BL/6 mice; MRI) | abdominal and subcutaneous fat (CD-HFD fed C57BL/6 mice; MRI) | Triglycerides in serum (CD-HFD fed C57BL/6 mice; at 6 or 12 months of age) | Liver to body weight ratio (CD-HFD fed C57BL/6 mice; at 12 months of age)
1 | CCCSc1nc(N[C@@H]2C[C@H]2c2ccc(F)c(F)c2)c2nnn([C@@H]3C[C@H](OCCO)[C@@H](O)[C@H]3O)c2n1 [ticagrelor, Ticagrelor] | significantly reduced | do develop obesity | No HCC | blocks NASH and HCC development | not present | rescued | significantly reduced | reduced by trend | significantly reduced | significantly reduced | – | – | – | – | –
2 | CC1=C(CC(=O)O)c2cc(F)ccc2/C1=C\c1ccc([S+](C)[O-])cc1 (centres unmarked) [sulindac, Sulindac] | not prevented | do develop obesity | – | does not prevent the development of NASH | present | not rescued | – | – | – | – | insulin resistant as CD-HFD fed mice | detected | visible | not significantly reduced | not rescued
